From US11001605B2, “Cyclic dinucleotides containing benzimidazole, method for the production of same, and use of same to activate stimulator of interferon genes (sting)-dependent signaling pathways” (BIOLOG LIFE SCIENCE INSTITUTE GmbH & Co. KG, priority 2016, dated 2021)

Legend:
THP1 Dual KO STING cells = assay: SEAP reporter assay in THP1 Dual KO STING control cells; type: cell-based, human; conditions: 40 μg/ml, 24 hours (FIG. 2)
Protocol: (§1) Legend for Synthesis 5: THP1-Blue™ cells ((THP1-ISG); InvivoGen, catalogue number: thp-isg; concentration: 5×10^5/ml, 180 μl/well (96-well-plate) and THP1 Dual™ KO STING cells ((STING KO) InvivoGen, catalogue number: thpd-kostg; concentration: 5×10^5/ml, 180 μl/well (96-well-plate) were incubated with inventive CDNs (concentration 40 μg/ml each) in medium (RPMI-1640, 2 mM L-glutamine, 1.5 g/I sodium bicarbonate, 4.5 g/I glucose, 10 mM HEPES, 1 mM sodium pyruvate, 10% FCS, 100 μg/mL Zeocin™, 110 μg/mL Normocin™, Pen-Strep 50 U/mL) for 24 hours at 37° C. in 5% CO2. For incubations with THP1 Dual™ KO STING cells, 10 μg/ml of blasticidin were added to the medium. Quantification was performed with SEAP detection reagent QUANTI-Blue™ (InvivoGen; catalogue number: rep-qb1; incubation time: 15 min at 37° C. in 5% CO2) by optical density (OD) determination at 625 nm.

STING signalling pathway = assay: Interferon-β promoter SEAP reporter assay in THP1-Blue cells; type: cell-based, human; conditions: 0, 10, 20, 40 μg/ml, 24 hours
Protocol: Legend for Synthesis 4: THP1-Blue™ cells ((THP1-ISG); InvivoGen, catalogue number: thp-isg; concentration: 5×10^5/ml, 180 μl/well (96-well-plate) were incubated with inventive CDNs in different concentrations (0 μg/ml; 10 μg/ml; 20 μg/ml; 40 μg/ml) in medium (RPMI-1640, 2 mM L-glutamine, 1.5 g/I sodium bicarbonate, 4.5 g/I glucose, 10 mM HEPES, 1 mM sodium pyruvate, 10% FCS, 100 μg/ml Zeocin™, 110 μg/ml Normocin™, Pen-Strep 50 U/ml) for 24 hours at 37° C. in 5% CO2. The quantification was performed with SEAP detection reagent QUANTI-Blue™ (InvivoGen; catalogue number: rep-qb1; incubation time: 30 min at 37° C. in 5% CO2) by optical density (OD) determination at 625 nm.
as §1
Cell line: THP1-Blue™ cells (InvivoGen, catalogue number: thp-isg) are derived from THP1 cells. THP1-Blue™ cells in a cell culture dish are stimulated by the administration of a CDN according to the invention or a buffer control.
In these genetically modified cells, the gene for secreted embryonic alkaline phosphatase (SEAP) is under the control of an interferon-β promoter.
After stimulation of the cells with an inventive CDN, the supernatant of the cell culture was removed and the enzymatic activity of SEAP was measured photometrically in a colorimetric assay by measuring the extinction at 625 nm (optical density; OD 625 nm).
Administration of an inventive CDN induces an increase in the activity of SEAP, which is a measure of the activity of the STING signalling pathway.

[1] = Lipophilicity determination by gradient HPLC (log k′g); type: physicochemical; conditions: HPLC gradient 1, RP-18, triethylammonium phosphate buffer pH 6.5 / methanol (ion pair chromatography)
Protocol: Gradient 1: Stationary phase: Polygosil 60-10, RP-18; 250×4 mm (Macherey & Nagel, DOren, Germany). Mobile phase A: 10 ml 1 M triethylammonium phosphate buffer (TEAP), pH 6.5+990 ml methanol. Mobile phase B: 10 ml 1 M TEAP, pH 6.5+990 ml H2O. Time program: 0 min: 100% B; 60 min: 100% A; 65 min: 100% A; 70 min: 100% B; 90 min: 100% B. Flow rate: 1.0 ml/min.
The octanol/water coefficient Log P is the commonly accepted indicator for the expected property of a given chemical entity to pass cellular membranes by passive diffusion. However, its practical determination for polar compounds such as multiply charged nucleotides is difficult in reality. Often, the information about membrane permeability must be received by fragmental analysis or other calculations.
Given this fact, an established HPLC method is used here, which is based on the measurement of retention on a reversed phase column^7. In contrast to Log P, this method yields the indicator log k′g, which allows for a ranking of different nucleotides of the same charge according to their lipophilicity.
Since CDNs are twofold negatively charged molecules which are only very insufficiently retarded on a reversed phase HPLC column, the determinations were performed in presence of the lipophilic triethylammonium cation (ion pair chromatography).
According to the established method^7 HPLC gradient 1 was used for the determination of lipophilicity.

Structure (SMILES) | effect of elevated OD at 625 nm in STING knock out cells (THP1 Dual KO STING cells) | SEAP activity, elevated OD at 625 nm, concentration-dependent (STING signalling pathway) | log k′g ([1]; listed as 29, MI2) | log k′g ([1]; listed as 98, MI1) | log k′g [1]
Nc1nc2c(ncn2[C@@H]2O[C@@H]3COP(=O)(S)OC4C(O)[C@H](n5cnc6cc(Cl)c(Cl)cc65)O[C@@H]4COP(=O)(S)OC2C3O)c(=O)[nH]1 (single isomer, unassigned) [Compound 29, MI2, Cyclic (guanosine-(2′→5′)-monophosphorothioate-5,6-dichlorobenzimidazole riboside-(3′→5′)-monophosphorothioate)] | no longer observed | positive | 2.403 | – | –
Nc1ncnc2c1ncn2[C@@H]1O[C@@H]2COP(=O)(S)OC3C(O)[C@@H](COP(=O)(S)OC2C1O)O[C@H]3n1cnc2ccccc21 (single isomer, unassigned) [Compound 98, MI1, Cyclic (adenosine-(3′→5′)-monophosphorothioate-benzimidazole riboside-(2′→5′)-monophosphorothioate)] | no longer observed | positive | – | 1.524 | –
Nc1ncnc2c1ncn2[C@@H]1O[C@@H]2COP(=O)(O)OC3C(O)[C@H](n4cnc5ccccc54)O[C@@H]3COP(=O)(O)OC2C1F (stereo partly drawn) [Compound 79, cyclic (2′-fluoro-2′-deoxyadenosine-(3′ −> 5′)-monophosphate-benzimidazole riboside-(3′ −> 5′)-monophosphate)] | no longer observed | positive | – | – | 1.322
